Test results from US6562387B2, “Ambient stable beverage and process of making” (priority 2000, dated 2003).
≈ marks a conversion by molar mass, not a printed value. Like-named read-outs stand apart in the source and are kept apart here.

Experiments:
[1] = Minimum inhibitory concentration (MIC) of antimicrobials / essential oils; format: cell-based
Source text: The minimum inhibitory concentration (MIC) is given for each compound.
In each case the respective minimum inhibitory concentration (MIC) and their specific preferred concentration is also given.

[2] = system: yeast Saccharomyces cerevisiae X2180-1B; conditions: synthetic soft drink pH 3.4, 1-175 ppm cinnamic acid, 1-250 ppm DMDC, 14 days at 25° C.
Description: Synthetic soft drink contained glucose, 8%w/v, citric acid 3 g/l, potassium orthophosphate 1 g/l, magnesium chloride 0.1 g/g and yeast extract 0.1 g/l. […] Tubes were inoculated with 10^4 cells of the yeast Saccharomyces cerevisiae X2180-1B. Immediately following inoculation, dimethyl dicarbonate, DMDC was added at concentrations ranging from 1-250 ppm.

[3] = system: yeast Saccharomyces cerevisiae X2180-1B; conditions: RTD tea pH 3.4, 1-175 ppm cinnamic acid, 1-250 ppm DMDC, 14 days at 25° C.
Description: Tubes were inoculated with 10^4cells of the yeast Saccharomyces cerevisiae X2180-1B. Immediately following inoculation, dimethyl dicarbonate, DMDC was added at concentrations ranging from 1-250 ppm.
Tubes were inoculated with 10^4 cells of the yeast Saccharomyces cerevisiae X2180-1B. Immediately following inoculation, dimethyl dicarbonate, DMDC was added at concentrations ranging from 1-250 ppm.

[4] = system: mould; conditions: cited from earlier work
[5] = cited from earlier work
[6] = Table I, preferred essential oils, test organism not given, read-out: MIC (ppm)
[7] = Table II, particularly preferred essential oils, test organism not given
[8] = 25 ppm citral dimethyl acetal together with 35 ppm cumic alcohol
[9] = 100 ppm essential oil component
[10] = Table I, preferred essential oils, test organism not given

Molecule: CCCCCCCCO [1-Octanol]
- MIC [1, 6]: 247 µg/mL (≈ 1900 µM)

Molecule: CC(=O)C(=O)c1ccccc1 [1-Phenyl-1,2-propanedione]
- MIC [1, 6]: 222 µg/mL (≈ 1500 µM)

Molecule: CCCCCCCCCCCO [1-Undecanol]
- MIC [1, 6]: 14 µg/mL (≈ 81.2 µM)

Molecule: CC(=O)OCCC1CCCCC1 [2-Cyclohexylethyl acetate]
- MIC [1, 6]: 102 µg/mL

Molecule: CCC=C(C)C=O [2-Methyl-2-pentenal]
- MIC [1, 6]: 1270 µg/mL (≈ 13000 µM)

Molecule: CC(C)CCCC(C)CCO (stereo not drawn) [3,7-Dimethyl-1-octanol]
- MIC [1, 6]: 15.8 µg/mL (≈ 99.8 µM)
- MIC (ppm) [1, 7]: 15.8 ppm
- tubes supporting yeast growth, comparison with control FIG. 11 ([2]; 50 ppm essential oil component): very substantially fewer tubes supporting yeast growth
- tubes supporting yeast growth, comparison with control FIG. 1 ([3]; 50 ppm essential oil component): very substantially fewer tubes supporting yeast growth

Molecule: CC(=O)OCCc1scnc1C [4-Methyl-5-thiazoleethanol acetate]
- MIC [1, 6]: 1110 µg/mL

Molecule: CC(C)(C)C1CCC(=O)CC1 [4-tert-Butylcyclohexanone]
- MIC [1, 6]: 462 µg/mL (≈ 3000 µM)

Molecule: CC(C)CC=C(C=O)c1ccccc1 [5-Methyl-2-phenyl-2-hexenal]
- MIC [1]: 162 µg/mL (≈ 860 µM)

Molecule: O=C(OCc1ccccc1)c1ccc(O)cc1 [Benzyl-4-hydroxybenzoate]
- MIC [1, 6]: 68 µg/mL (≈ 298 µM)

Molecule: C=C(C)C1CC=C(C)C(=O)C1 (stereo not drawn) [Carvone]
- MIC [1, 6]: 300 µg/mL (≈ 2000 µM)

Molecule: O=CC=Cc1ccccc1 [Cinnamaldehyde]
- MIC [1, 6]: 66 µg/mL (≈ 499 µM)

Molecule: COC(C=C(C)CCC=C(C)C)OC [Citral dimethyl acetal]
- MIC [1, 6]: 198 µg/mL (≈ 998 µM)
- MIC (ppm) [1, 7]: 198 ppm
- tubes supporting yeast growth, comparison with control FIG. 11 [2, 8]: very substantially fewer tubes supporting yeast growth
- tubes supporting yeast growth, comparison with control FIG. 11 [2, 9]: very substantially fewer tubes supporting yeast growth
- tubes supporting yeast growth, comparison with control FIG. 1 [3, 8]: very substantially fewer tubes supporting yeast growth
- tubes supporting yeast growth, comparison with control FIG. 1 [3, 9]: very substantially fewer tubes supporting yeast growth

Molecule: CC(C)=CCCC(C)=CC=O [Citral]
- MIC [1, 6]: 228 µg/mL (≈ 1500 µM)
- MIC (ppm) [1, 7]: 228 ppm
- tubes supporting yeast growth, comparison with control FIG. 11 [2, 9]: very substantially fewer tubes supporting yeast growth
- tubes supporting yeast growth, comparison with control FIG. 1 [3, 9]: very substantially fewer tubes supporting yeast growth

Molecule: CC(C)=CCCC(C)CCO (stereo not drawn) [Citronellol]
- MIC [1, 6]: 125 µg/mL (≈ 800 µM)

Molecule: CC(C)c1ccc(CO)cc1 [Cumic alcohol]
- MIC (ppm) [1, 10]: 450 ppm
- MIC (ppm) [1, 7]: 450 ppm
- tubes supporting yeast growth, comparison with control FIG. 11 [2, 8]: very substantially fewer tubes supporting yeast growth
- tubes supporting yeast growth, comparison with control FIG. 11 [2, 9]: very substantially fewer tubes supporting yeast growth
- tubes supporting yeast growth, comparison with control FIG. 1 [3, 8]: very substantially fewer tubes supporting yeast growth
- tubes supporting yeast growth, comparison with control FIG. 1 [3, 9]: very substantially fewer tubes supporting yeast growth

Molecule: O=C(O)CCCC1CCCCC1 [Cyclohexanebutyric acid]
- MIC [1, 6]: 68 µg/mL (≈ 399 µM)

Molecule: COC(=O)OC(=O)OC [DMDC, Dimethyl dicarbonate]
- efficacy against mould contamination [4]: inefficient
- break down in aqueous environments [5]: breaks down rapidly

Molecule: CCCCCCCCCC=O [Decanal]
- MIC [1, 6]: 47 µg/mL (≈ 301 µM)

Molecule: CCCCCCCCCCO [Decanol]
- MIC [1, 6]: 24 µg/mL (≈ 152 µM)

Molecule: C=C(C)C1CCC(C)C(O)C1 (stereo not drawn) [Dihydrocarveol]
- MIC (ppm) [1, 10]: 540 ppm

Molecule: CCOC(=O)CCC1CCCCC1 [Ethyl cyclohexanepropionate]
- MIC [1, 6]: 184 µg/mL (≈ 998 µM)

Molecule: CCOC(=O)C(C)=O [Ethyl pyruvate]
- MIC [1, 6]: 1390 µg/mL (≈ 12000 µM)
- MIC (ppm) [1, 7]: 1392 ppm

Molecule: CC/C=C\CC1=C(C)CCC1=O [Jasmone]
- MIC [1, 6]: 246 µg/mL (≈ 1500 µM)

Molecule: COC(=O)c1ccccc1N [Methyl anthranilate]
- MIC [1, 6]: 310 µg/mL (≈ 2050 µM)

Molecule: CCCCCCCCC(=O)OC [Methyl nonanoate]
- MIC [1, 6]: 90 µg/mL (≈ 522 µM)

Molecule: COC(=O)c1ccccc1O [Methyl salicylate]
- MIC [1, 6]: 152 µg/mL (≈ 999 µM)

Molecule: CC1(C)C2CC=C(CO)C1C2 (stereo not drawn) [Myrtenol]
- MIC (ppm) [1, 10]: 137 ppm
- MIC (ppm) [1, 7]: 137 ppm
- tubes supporting yeast growth, comparison with control FIG. 11 [2, 9]: very substantially fewer tubes supporting yeast growth
- tubes supporting yeast growth, comparison with control FIG. 1 [3, 9]: very substantially fewer tubes supporting yeast growth

Molecule: CC1CCC(C(C)C)C(O)C1 (stereo not drawn) [Neomenthol]
- MIC (ppm) [1, 10]: 156 ppm

Molecule: CCCCCCCCC(=O)O [Nonanoic acid]
- MIC [1, 6]: 63 µg/mL (≈ 398 µM)

Molecule: CCCCCCCC(=O)O [Octanoic acid (caprylic), Octanoic acid]
- MIC [1, 6]: 115 µg/mL (≈ 797 µM)

Molecule: CC(=O)OCc1ccc2c(c1)OCO2 [Piperonyl acetate]
- MIC [1]: 242 µg/mL
- MIC (ppm) [1, 7]: 242 ppm
- tubes supporting yeast growth, comparison with control FIG. 11 [2, 9]: very substantially fewer tubes supporting yeast growth
- tubes supporting yeast growth, comparison with control FIG. 1 [3, 9]: very substantially fewer tubes supporting yeast growth

Molecule: CCCOC(=O)c1ccccc1 [Propyl benzoate]
- MIC [1, 6]: 66 µg/mL (≈ 402 µM)

Molecule: CC(C)=C1CC[C@@H](C)CC1=O [Pulegone]
- MIC [1, 6]: 152 µg/mL (≈ 998 µM)

Molecule: CC=CC=CC=O [Sorbic aldehyde (2,4-hexadienal), 2,4-hexadienal]
- MIC [1, 6]: 86 µg/mL (≈ 895 µM)

Molecule: CC1=CCC(O)(C(C)C)CC1 (stereo not drawn) [Terpinen-4-ol]
- MIC [1, 6]: 616 µg/mL (≈ 3990 µM)

Molecule: CCCCCCCCCCC=O [Undecanal]
- MIC [1, 6]: 34 µg/mL (≈ 200 µM)

Molecule: COc1cc(C=O)ccc1O [Vanillin]
- MIC [1, 6]: 1220 µg/mL (≈ 7990 µM)

Molecule: COc1ccccc1C=CC=O [o-Methoxycinnamaldehyde]
- MIC [1, 6]: 130 µg/mL (≈ 802 µM)

Molecule: CCCCC/C=C/C=C/C=O [trans, trans-2,4-Decadienal]
- MIC [1, 6]: 8 µg/mL (≈ 52.5 µM)
- MIC (ppm) [1, 7]: 8 ppm
- tubes supporting yeast growth, comparison with control FIG. 11 ([2]; 15 ppm essential oil component): very substantially fewer tubes supporting yeast growth
- tubes supporting yeast growth, comparison with control FIG. 1 ([3]; 15 ppm essential oil component): very substantially fewer tubes supporting yeast growth

Molecule: C/C(C=O)=C\c1ccccc1 [α-Methyl-trans-cinnamaldehyde]
- MIC (ppm) [1, 10]: 58.4 ppm

Molecule: CCCCCC1CCC(=O)O1 (stereo not drawn) [γ-Nonanoic lactone]
- MIC (ppm) [1, 10]: 63 ppm

Molecule: CCCCCCCC1CCC(=O)O1 (stereo not drawn) [γ-Undecalactone]
- MIC (ppm) [1, 10]: 28 ppm

Molecule: CCCC1CCCC(=O)O1 (stereo not drawn) [δ-Octalactone]
- MIC (ppm) [1, 10]: 568 ppm

Molecule: Tolualdehyde
- MIC (ppm) [1, 10]: 240 ppm
